Test results as given in the NIST ThermoML archive (doi:10.1021/je100801s).

Columns and labels:
[1] = for Normal melting temperature: DTA
[2] = Molar enthalpy of transition or fusion; details: Crystal; DSC

NC(=O)c1cccc(F)c1 [3-fluorobenzamide]
[1]
Details	vapor or sublimation pressure [kPa]
323.1 K, Crystal, Calculated from knudsen effusion weight loss	9e-05
325.17 K, Crystal, Calculated from knudsen effusion weight loss	0.000114
327.18 K, Crystal, Calculated from knudsen effusion weight loss	0.000143
329.08 K, Crystal, Calculated from knudsen effusion weight loss	0.000183
331.13 K, Crystal, Calculated from knudsen effusion weight loss	0.000229
333.18 K, Crystal, Calculated from knudsen effusion weight loss	0.000286
336.83 K, Crystal, Closed cell (Static) method	0.00046
337.28 K, Crystal, Calculated from knudsen effusion weight loss	0.000461
339.17 K, Crystal, Calculated from knudsen effusion weight loss	0.000559
339.76 K, Crystal, Closed cell (Static) method	0.00063
341.08 K, Crystal, Calculated from knudsen effusion weight loss	0.000688
342.87 K, Crystal, Closed cell (Static) method	0.00089
343.13 K, Crystal, Calculated from knudsen effusion weight loss	0.000842
345.18 K, Crystal, Calculated from knudsen effusion weight loss	0.001032
345.87 K, Crystal, Closed cell (Static) method	0.0012
348.82 K, Crystal, Closed cell (Static) method	0.00166
351.66 K, Crystal, Closed cell (Static) method	0.00222
354.65 K, Crystal, Closed cell (Static) method	0.003
357.76 K, Crystal, Closed cell (Static) method	0.00407
360.59 K, Crystal, Closed cell (Static) method	0.00535
363.62 K, Crystal, Closed cell (Static) method	0.0071
366.55 K, Crystal, Closed cell (Static) method	0.00941
372.5 K, Crystal, Closed cell (Static) method	0.01592
375.47 K, Crystal, Closed cell (Static) method	0.02067
378.58 K, Crystal, Closed cell (Static) method	0.02712
382.58 K, Liquid, Closed cell (Static) method	0.0587
384.49 K, Crystal, Closed cell (Static) method	0.04471
387.47 K, Crystal, Closed cell (Static) method	0.05659
387.53 K, Liquid, Closed cell (Static) method	0.07955
390.45 K, Crystal, Closed cell (Static) method	0.07258
392.49 K, Liquid, Closed cell (Static) method	0.108
396.38 K, Crystal, Closed cell (Static) method	0.1148
397.43 K, Liquid, Closed cell (Static) method	0.1444
402.37 K, Liquid, Closed cell (Static) method	0.1895
407.27 K, Liquid, Closed cell (Static) method	0.2514
412.23 K, Liquid, Closed cell (Static) method	0.3264
417.16 K, Liquid, Closed cell (Static) method	0.4262
422.04 K, Liquid, Closed cell (Static) method	0.5472
427.02 K, Liquid, Closed cell (Static) method	0.7039
432 K, Liquid, Closed cell (Static) method	0.9006

Details	Normal melting temperature [°C]
[1], Crystal	128.43

Details	Molar enthalpy of transition or fusion [kcal/mol]
[2]	5.14

NC(=O)c1ccccc1F [o-fluorobenzamide]
[1]
Details	vapor or sublimation pressure [kPa]
303.12 K, Crystal, Calculated from knudsen effusion weight loss	0.000102
305.21 K, Crystal, Calculated from knudsen effusion weight loss	0.00013
307.19 K, Crystal, Calculated from knudsen effusion weight loss	0.000166
309.12 K, Crystal, Calculated from knudsen effusion weight loss	0.000213
311.2 K, Crystal, Calculated from knudsen effusion weight loss	0.00027
313.29 K, Crystal, Calculated from knudsen effusion weight loss	0.000341
315.11 K, Crystal, Calculated from knudsen effusion weight loss	0.000429
317.2 K, Crystal, Calculated from knudsen effusion weight loss	0.00054
317.98 K, Crystal, Closed cell (Static) method	0.0006
319.18 K, Crystal, Calculated from knudsen effusion weight loss	0.000668
320.48 K, Crystal, Closed cell (Static) method	0.0008
321.11 K, Crystal, Calculated from knudsen effusion weight loss	0.000843
322.94 K, Crystal, Closed cell (Static) method	0.00105
323.18 K, Crystal, Calculated from knudsen effusion weight loss	0.001059
325.18 K, Crystal, Calculated from knudsen effusion weight loss	0.001295
325.41 K, Crystal, Closed cell (Static) method	0.00137
327.86 K, Crystal, Closed cell (Static) method	0.00175
330.38 K, Crystal, Closed cell (Static) method	0.00233
332.86 K, Crystal, Closed cell (Static) method	0.003
335.32 K, Crystal, Closed cell (Static) method	0.0038
337.75 K, Crystal, Closed cell (Static) method	0.00484
340.21 K, Crystal, Closed cell (Static) method	0.00617
342.7 K, Crystal, Closed cell (Static) method	0.00785
345.32 K, Crystal, Closed cell (Static) method	0.01002
350.2 K, Crystal, Closed cell (Static) method	0.01581
355.69 K, Crystal, Closed cell (Static) method	0.02544
357.75 K, Crystal, Closed cell (Static) method	0.03116
358.65 K, Liquid, Closed cell (Static) method	0.05979
360.13 K, Crystal, Closed cell (Static) method	0.03777
361.55 K, Liquid, Closed cell (Static) method	0.07225
362.71 K, Crystal, Closed cell (Static) method	0.04753
364.59 K, Liquid, Closed cell (Static) method	0.08814
365.1 K, Crystal, Closed cell (Static) method	0.05735
367.55 K, Liquid, Closed cell (Static) method	0.1048
370.04 K, Crystal, Closed cell (Static) method	0.08597
370.55 K, Liquid, Closed cell (Static) method	0.126
372.63 K, Crystal, Closed cell (Static) method	0.1058
375.47 K, Liquid, Closed cell (Static) method	0.1688
377.6 K, Crystal, Closed cell (Static) method	0.1572
380.43 K, Liquid, Closed cell (Static) method	0.225
385.38 K, Liquid, Closed cell (Static) method	0.2972
391.35 K, Liquid, Closed cell (Static) method	0.4081
394.82 K, Liquid, Closed cell (Static) method	0.4892
397.41 K, Liquid, Closed cell (Static) method	0.5572
399.81 K, Liquid, Closed cell (Static) method	0.6302
402.34 K, Liquid, Closed cell (Static) method	0.7124
404.79 K, Liquid, Closed cell (Static) method	0.8064
407.26 K, Liquid, Closed cell (Static) method	0.9115
409.66 K, Liquid, Closed cell (Static) method	1.024
412.16 K, Liquid, Closed cell (Static) method	1.147

Details	Normal melting temperature [°C]
[1], Crystal	115.34

Details	Molar enthalpy of transition or fusion [kcal/mol]
[2]	4.95
